Results reported in patent publication US9656984B2, “PI3K/AKT/mTOR inhibitors and pharmaceutical uses thereof” (UNIVERSITE DE RENNES 1, priority 2013, dated 2017).

How the values were obtained:
[1] = test system: AKT phosphorylation; assay: In cellulo IC50 of AKT phosphorylation in CEM cells (Western blot densitometry); type: cell-based; conditions: Homo sapiens, CCRF-CEM, 2 hours incubation, AKT phosphorylation vs whole AKT, read-out: In vivo IC50
Experimental: CEM cells were incubated for 2 hours with the indicated concentrations of each mentioned compound of formula (I). Cells were then lysed and 100 μg of protein was loaded per line in an SDS-PAGE. Bands from AKT phosphorylation and whole AKT observed by Western blot were scanned and quantified by densitometric analysis. Based on these values, an in cellulo IC50 (half maximal inhibitory concentration) was measured for each compound of formula (I).
Immunoblots Excepted for immunoprecipitation experiments in which cells were lyzed with RIPA buffer, cells were lyzed for 30 min at 4° C. in Lysis buffer (25 mM HEPES pH 7.4, 1% v/v Triton X-100, 150 mM NaCl, 2 mM EGTA supplemented with a mix of protease inhibitors). Protein concentration was determined by the bicinchoninic acid method (Pierce, Rockford, Ill., USA) according to the manufacturer's protocol. Proteins were resolved by 8, 10 or 12% SDS-PAGE and transferred to a nitrocellulose membrane (GE Healthcare, Buckinghamshire, UK). The membrane was blocked 15 min with TBST (50 mM Tris, 160 mM NaCl, 0.05% v/v Tween 20, pH 7.4) containing 5% w/v dried skimmed milk (TBS™). Primary antibody was incubated overnight at 4° C. in TBS™. The membrane was intensively washed (TBST) and then the peroxydase-labeled anti-mouse IgG1 or IgG2a (CliniSciences, Nanterre, France) was added for 45 min. Proteins were visualized with the enhanced chemiluminescence substrate kit (ECL RevelBIOt®, Ozyme, Saint Quentin en Yvelines, France).

[2] = test system: MCF-7 (ER-positive) breast tumor cell line; assay: Cell death by MTT assay, MCF-7; type: cell-based, human; conditions: 24 hours, mean of four experiments
Experimental: (§1) The ER-positive breast tumor cell lines MCF-7 and T47-D and the HER2 positive breast tumor cell lines MDA-MB-453 and BT474 (also ER-positive) were incubated with the indicated concentration of each mentioned compound of formula (I) for 24 hours and then cell death was assessed using MTT assay.
(§2) For each cell line, the percentage of cell death (mean of four experiments for cell lines MCF-7 and T47-D, and two experiments for cell lines MDA-MB-453 and BT474) is given in view of the increasing concentration of each tested compound of the invention.
(§3) Cell viability was assessed using the 3-[4,5-dimethylthiazol-2-yl]-2,5-diphenyltetrazolium bromide (MTT) viability assay (1). In brief, cells (4×10^4 per well) were cultured for 20 h in flat-bottomed 96 well plates with various concentrations of the apoptosis inducer. Then 0.015 ml of MTT (5 mg/ml in PBS) was added to each well and incubated for 4 h at 37° C. Formazan salt precipitats were dissolved by adding 0.115 ml of isopropyl alcohol containing 1% formic acid (v/v), and the absorbance was measured at 570 nm.

[3] = test system: BT474 (ER-positive/HER2-positive) breast tumor cell line; assay: Cell death by MTT assay, BT474; type: cell-based, human; conditions: 24 hours, mean of two experiments
Experimental: as §1, §2, §3

[4] = In vivo toxicity, repeated intravenous injections in mice; conditions: 10 mg/kg
Experimental: Mice received repeated intravenous injections of compound 25 (10 mg/kg) or vehicle.

[5] = test system: TSC2^−/− AML (AngioMyoLipoma) cells; assay: Cell viability by MTT assay on TSC2^−/− and TSC2^+/+ AML cells; type: cell-based, human; conditions: 16 hours, 1% fetal calf serum
Experimental: AML (AngioMyoLipoma) cells from a patient (generous gift from Dr M. Pende, Paris) were enriched for TSC2^−/− cells, as a model of tuberous sclerosis. These cells have been reconstituted with wild type TSC2 (TSC2^+/+). Cell proliferation was assessed in cells from angiomyolipomas and their counterparts reconstituted with wild type TSC2.
Cell viability was assessed by MTT assay. Cells were incubated for 16 hours in a 1% fetal calf serum-containing medium supplemented with the indicated concentrations of the two mTOR inhibitors, compound 25 or rapamycin (see FIGS. 14B and 14C). Data represent mean and standard deviation of three independent experiments.
as §3

[6] = target: T1, mTOR protein regarding 243 human kinases (Homo sapiens, UniProt P42345); assay: Kinome by KinaseProfiler; type: biochemical; conditions: 1 μM, FIG. 11
T1 construct: purchased

[7] = target: mTORC1 (Homo sapiens, UniProt P42345); assay: Immunoblot of mTORC1 activity in TSC2^−/− AML cells; type: cell-based; set-up: AML cells (1.10^6 cells) deficient for TSC2 (TS2^−/−) or reconstituted with wild type TSC2; endogenous in cells; host or cells: AML (angiomyolipoma) cells from a patient, TSC2-/- or reconstituted with wild type TSC2; conditions: 10 μM, FIG. 15
Experimental: AML cells (1.10^6 cells) deficient for TSC2 (TS2^−/−) or reconstituted with wild type TSC2 (TSC2^+/+) (generous gift from Dr M. Pende, Paris) were treated or untreated for indicated times with 10 μM of compound 25 or rapamycin and then cells were lyzed. 100 μg of protein was loaded and resolved by SDS-PAGE and indicated immunoblots were performed. Total S6 and β-actin serve as loading controls. S6 is phosphorylated by p70S6K on its serine 240 and 244. 4EBP1 is phosphorylated by mTORC1 on its Threonine at positions 37 and 46. p70S6K and 4EBP1 are direct substrates of mTORC1. mTORC1-driven phosphorylation of 4EBP1 can be monitored by the appearance of a high molecular weight band which disappears in presence of compound 25 or Rapamycin (see FIG. 15). Of note, restoration of TS2 expression in AML cells reduces the basal level of S6 and 4EBP1 phosphorylation.
Immunoblots Excepted for immunoprecipitation experiments in which cells were lyzed with RIPA buffer, cells were lyzed for 30 min at 4° C. in Lysis buffer (25 mM HEPES pH 7.4, 1% v/v Triton X-100, 150 mM NaCl, 2 mM EGTA supplemented with a mix of protease inhibitors). Protein concentration was determined by the bicinchoninic acid method (Pierce, Rockford, Ill., USA) according to the manufacturer's protocol. Proteins were resolved by 8, 10 or 12% SDS-PAGE and transferred to a nitrocellulose membrane (GE Healthcare, Buckinghamshire, UK). […]

O=[N+]([O-])C1=Cc2cc(Br)cc(Br)c2OC1c1ccc(Br)cc1 (centres unmarked) [Compound 25, 6,8-dibromo-2-(4-bromo-phenyl)-3-nitro-2H-chromene]
IC50 [1]: 3000 nM | percentage of cell death ([2]; MCF-7, 6.25 μM): 47.86% | percentage of cell death ([2]; MCF-7, 12.5 μM): 63.54% | percentage of cell death ([2]; MCF-7, 25 μM): 76.72% | percentage of cell death ([2]; MCF-7, 50 μM): 94.09% | percentage of cell death ([3]; BT474, 6.25 μM): 75.54% | percentage of cell death ([3]; BT474, 12.5 μM): 95.61% | percentage of cell death ([3]; BT474, 25 μM): 90.49% | percentage of cell death ([3]; BT474, 50 μM): 96.81% | toxicity in mice [4]: did not exhibit toxicity | body weight of the tested mice ([4]; FIG. 13A): maintained | survival of the tested mice ([4]; at 7 days, FIG. 13B): all mice survived | sensitivity of TSC2^−/− cells versus wild type TSC2^+/+ cells (cell death, MTT) ([5]; FIG. 14B): more sensitive | efficiency to kill TSC2^−/− cells compared with rapamycin ([5]; FIGS. 14B and 14C): more efficient | selectivity in kinome [6]: selectivity of compound 25 for the mTOR protein | mTORC1 activity in TSC2^−/− cells [7]: inhibit mTORC1 activity | mTORC1-driven phosphorylation of 4EBP1 (high molecular weight band) ([7]; AML cells): disappears
